Laboratory results published in patent US20060057236A1, “Process for producing an extract of ivy leaves” (priority 2003, published 2006).

Experiments:
β-adrenergic receptors = assay: inhibition of internalization of β-adrenergic receptors (receptor/ligand complex) into the cell; type: cell-based; conditions: studies carried out by the applicant; result in words
β-adrenergic receptor = assay: direct action on the β-adrenergic receptor; conditions: studies carried out by the applicant; result in words

Structure (SMILES)	inhibition of the process of internalizing β-adrenergic receptors (β-adrenergic receptors)	direct attack on the β-adrenergic receptor (β-adrenergic receptor)
C[C@@H]1O[C@@H](O[C@H]2[C@H](O[C@H]3CC[C@@]4(C)[C@@H](CC[C@]5(C)[C@@H]4CC=C4[C@@H]6CC(C)(C)CC[C@]6(C(=O)O[C@@H]6O[C@H](CO[C@@H]7O[C@H](CO)[C@@H](O[C@@H]8O[C@@H](C)[C@H](O)[C@@H](O)[C@H]8O)[C@H](O)[C@H]7O)[C@@H](O)[C@H](O)[C@H]6O)CC[C@]45C)[C@]3(C)CO)OC[C@H](O)[C@@H]2O)[C@H](O)[C@H](O)[C@H]1O [hederacoside C]	unable to inhibit the process of internalization	
CC1(C)CC[C@]2(C(=O)O)CC[C@]3(C)C(=CC[C@@H]4[C@@]5(C)CC[C@H](O)[C@@](C)(CO)[C@@H]5CC[C@]43C)[C@@H]2C1 [hederagenin]	unable to inhibit the process of internalization	
C[C@@H]1O[C@@H](O[C@H]2[C@H](O[C@H]3CC[C@@]4(C)[C@@H](CC[C@]5(C)[C@@H]4CC=C4[C@@H]6CC(C)(C)CC[C@]6(C(=O)O)CC[C@]45C)[C@]3(C)CO)OC[C@H](O)[C@@H]2O)[C@H](O)[C@H](O)[C@H]1O [α-hederin]	inhibits the process of internalizing β-adrenergic receptors in a specific manner	does not attack the β-adrenergic receptor directly
